Measured values reported in publication PMC3276500, “Caffeic Acid Phenethyl Ester and Its Amide Analogue Are Potent Inhibitors of Leukotriene Biosynthesis in Human Polymorphonuclear Leukocytes” (PLoS ONE, 2012).

Biological target: T1, 5-lipoxygenase (5-LO) (Homo sapiens, UniProt P09917)
T1 construct: gene ALOX5
T1 sequence (P09917 1-674): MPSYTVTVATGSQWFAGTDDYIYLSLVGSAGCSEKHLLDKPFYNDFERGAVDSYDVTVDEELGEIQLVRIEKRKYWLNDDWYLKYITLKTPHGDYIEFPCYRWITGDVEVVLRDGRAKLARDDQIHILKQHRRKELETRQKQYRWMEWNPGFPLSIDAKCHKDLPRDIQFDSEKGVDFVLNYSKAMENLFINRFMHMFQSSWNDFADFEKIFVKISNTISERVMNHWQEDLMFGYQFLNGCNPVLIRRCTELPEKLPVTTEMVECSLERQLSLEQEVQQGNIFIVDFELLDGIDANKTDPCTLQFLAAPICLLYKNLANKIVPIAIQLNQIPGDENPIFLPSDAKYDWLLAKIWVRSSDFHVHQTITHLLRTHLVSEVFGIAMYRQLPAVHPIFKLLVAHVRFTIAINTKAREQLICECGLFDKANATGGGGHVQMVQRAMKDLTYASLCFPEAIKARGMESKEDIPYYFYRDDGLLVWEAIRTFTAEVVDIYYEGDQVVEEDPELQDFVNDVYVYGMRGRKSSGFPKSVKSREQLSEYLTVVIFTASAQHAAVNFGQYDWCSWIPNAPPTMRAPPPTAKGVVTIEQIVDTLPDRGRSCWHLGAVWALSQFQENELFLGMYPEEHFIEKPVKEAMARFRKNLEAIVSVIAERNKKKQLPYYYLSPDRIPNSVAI
Test: cell-free 5-LO activity assay in lysate supernatant of HEK293 cells stably transfected with 5-LO, RP-HPLC of products
Assay type: biochemical

| Compound | IC50 |
| --- | --- |
| O=C(/C=C/c1ccc(O)c(O)c1)NCCc1ccccc1 [compound 9] | 2380 nM |
| O=C(/C=C/c1ccc(O)c(O)c1)OCCc1ccccc1 [compound 1, CAPE] | 130 nM |
